Experiment [1] can be described thus: Compound tested for the inhibition of chitin synthase using Saccharomyces cerevisiae cells (X2180 strain).
Experiment [2] deals with Cryptococcus neoformans. In words: Inhibitory activity tested against Cryptococcus neoformans at 256 ug/mL concentration. Type of experiment: functional.
The test system of experiment [3] is Aspergillus fumigatus. Briefly: Inhibitory activity tested against Aspergillus fumigatus at 256 ug/mL concentration. In kind it is functional.
The test system of experiment [4] is Candida albicans. In words: Inhibitory activity tested against Candida albicans at 256 ug/mL concentration. In kind it is functional.
For experiment [5], the system named is Saccharomyces cerevisiae. Briefly: Inhibitory activity tested against Saccharomyces cerevisiae at 256 ug/mL concentration. Type of experiment: functional.

Data on 9 molecules can be found in ChEMBL document CHEMBL1136384, “Design, synthesis and biological evaluation of hetaryl-nucleoside derivatives as inhibitors of chitin synthase” (Bioorg Med Chem Lett, 2003).

In experiment [1], `C[C@@H]([C@H](N)C(=O)N[C@H](C(=O)O)[C@H]1O[C@@H](n2ccc(=O)[nH]c2=O)[C@H](O)[C@@H]1O)[C@H](O)c1ccc(O)cn1` (stereo in doubt) [NIKKOMYCIN] yielded a concentration for half-maximal inhibition (IC50) of 0.0005 mM and an inhibition constant Ki of 0.00034 mM. For `O=C(NC[C@@H]1OC(n2ccc(=O)[nH]c2=O)[C@H](O)[C@@H]1O)[C@H](O)[C@@H](O)C(=O)OCc1ccc2ccccc2n1` (stereo partly specified) the same measures were 2 mM and 0.8 mM.

In experiment [1], `O=C(CC(=O)OC[C@H]1OC(n2ccc(=O)[nH]c2=O)[C@H](O)[C@@H]1O)OCc1ccc(O)cn1` (stereo partly specified) came in with a half-inhibitory concentration (IC50) of 2.8 mM. `O=C(NC[C@H]1OC(n2ccc(=O)[nH]c2=O)[C@H](O)[C@@H]1O)[C@H](O)[C@@H](O)C(=O)OCc1ccc(O)cn1` (stereo partly specified) returned an IC50 in experiment [1] of 3.2 mM. This IC50 and that of the molecule before are within 1.5-fold of each other. Turning to `O=c1ccn([C@@H]2O[C@H](CO[C@@H]3O[C@@H](CO)[C@@H](O)[C@H](OCc4ccc5ccccc5n4)[C@@H]3O)[C@@H](O)[C@H]2O)c(=O)[nH]1`, in experiment [1], half-maximal inhibition (IC50) required 0.8 mM and the inhibition constant Ki is 0.25 mM. Turning to `O=c1ccn([C@@H]2O[C@H](CO[C@@H]3O[C@@H](COCc4ccc5ccccc5n4)[C@@H](O)[C@H](O)[C@@H]3O)[C@@H](O)[C@H]2O)c(=O)[nH]1`, in experiment [1], the half-inhibitory concentration (IC50) worked out at 3.2 mM. The inhibition at 256 µg/mL is 80% in experiment [2], 30% in experiment [3] and 30% in experiment [4]. The inhibition in experiment [5] turned out to be 30%. Consider `O=c1ccn([C@@H]2O[C@H](CO[C@@H]3O[C@@H](CO)[C@@H](OCc4ccc5ccccc5n4)[C@H](O)[C@@H]3O)[C@@H](O)[C@H]2O)c(=O)[nH]1`, for which, in experiment [1], the IC50 stood at 2 mM. For the molecule `COCOc1ccc(COC(=O)CC(=O)OC[C@H]2OC(n3ccc(=O)[nH]c3=O)[C@H](O)[C@@H]2O)nc1` (stereo partly specified), half-maximal inhibition in experiment [1] (IC50) required 10.8 mM. Same read-out and setting: the value for `C[C@@H]([C@H](N)C(=O)N[C@H](C(=O)O)[C@H]1O[C@@H](n2ccc(=O)[nH]c2=O)[C@H](O)[C@@H]1O)[C@H](O)c1ccc(O)cn1` [NIKKOMYCIN] was 0.00034 mM.

By IC50 is commonly meant the concentration at which inhibition is half-maximal. A high value points to weaker potency in that assay. By Ki is commonly meant a dissociation constant, usually derived from enzyme kinetics or from competition with a known ligand. Read a low Ki as a stronger hold on the target. The inhibition is how much of the control response was suppressed. Read a high inhibition as a response far below the control.
